Results as given in PubChem BioAssay (NCI).
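1) Cells in 96-well plates. 2) Compound, 48 h, 5 concentrations. 3) Linear interpolation between surrounding doses. 4) Unreached endpoint = highest concentration. GI50: concentration for 50% inhibition of growth. TGI: concentration producing complete growth inhibition.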

How the values were obtained:
Test in all cases: DTP human tumour cell line panel, 48 h
MALME-3M melanoma = tested on: MALME-3M melanoma
MCF7 breast = tested on: MCF7 breast
NCI-H23 lung = tested on: NCI-H23 lung
SK-MEL-2 melanoma = tested on: SK-MEL-2 melanoma
M14 melanoma = tested on: M14 melanoma
MOLT-4 leukemia = tested on: MOLT-4 leukemia
OVCAR-8 ovarian = tested on: OVCAR-8 ovarian
HOP-62 NSCLC = tested on: HOP-62 NSCLC
RPMI-8226 leukemia = tested on: RPMI-8226 leukemia
LOX IMVI melanoma = tested on: LOX IMVI melanoma

`COc1ccccc1C1C(C#N)=C(N)Oc2cc(O)ccc21` (stereo not given) gave a GI50 (MALME-3M melanoma) of 21.6 µM, a TGI (MALME-3M melanoma) of 88.6 µM and a GI50 (MCF7 breast) of 17.7 µM. It also gave a TGI (MCF7 breast) of 49.7 µM, a GI50 (NCI-H23 lung) of 17.6 µM and a TGI (NCI-H23 lung) of 49.4 µM. The GI50 (SK-MEL-2 melanoma) was 23 µM, the TGI (SK-MEL-2 melanoma) was greater than 100 µM and the GI50 (M14 melanoma) was 13.4 µM. The TGI (M14 melanoma) was 35 µM, the GI50 (MOLT-4 leukemia) was 13.1 µM and the TGI (MOLT-4 leukemia) was 45.4 µM. For the same molecule, the GI50 (OVCAR-8 ovarian) was 35.2 µM, the TGI (OVCAR-8 ovarian) was greater than 100 µM and the GI50 (HOP-62 NSCLC) was 15.8 µM. It also gave a TGI (HOP-62 NSCLC) of 60.2 µM, a GI50 (RPMI-8226 leukemia) of 5.99 µM and a TGI (RPMI-8226 leukemia) of 19.8 µM. For the same molecule, the GI50 (LOX IMVI melanoma) was 30.8 µM and the TGI (LOX IMVI melanoma) was greater than 100 µM.

For `Cc1cc(NS(=O)(=O)c2ccc(Nc3c4ccccc4nc4c(C(=O)NCCO)cccc34)cc2)no1`, the TGI (MALME-3M melanoma) was 70.4 µM, the TGI (MCF7 breast) was 45.5 µM and the TGI (NCI-H23 lung) was greater than 100 µM. It also gave a TGI (SK-MEL-2 melanoma) of 74 µM, a TGI (M14 melanoma) of 70 µM and a TGI (MOLT-4 leukemia) greater than 100 µM. It also gave a TGI (OVCAR-8 ovarian) greater than 100 µM, a TGI (HOP-62 NSCLC) greater than 100 µM and a TGI (RPMI-8226 leukemia) of 79.3 µM. The TGI (LOX IMVI melanoma) was greater than 100 µM.

`Cc1ccc(C(=O)N/N=C2/C(=O)c3c4ccccc4cc4cccc2c34)cc1` showed a TGI (MALME-3M melanoma) of 44.4 µM, a TGI (MCF7 breast) of 11.6 µM and a TGI (NCI-H23 lung) of 77.8 µM. It also gave a TGI (SK-MEL-2 melanoma) greater than 100 µM, a TGI (M14 melanoma) greater than 100 µM and a TGI (MOLT-4 leukemia) greater than 100 µM. It also gave a TGI (OVCAR-8 ovarian) greater than 100 µM, a TGI (HOP-62 NSCLC) of 43.4 µM and a TGI (RPMI-8226 leukemia) greater than 87.1 µM. The TGI (LOX IMVI melanoma) was greater than 100 µM.
